What was measured:
mOR256 = test: Luminescent assay (cAMP-responsive luciferase reporter); assay type: cell-based; settings: FIG. 6B; luciferase reporter read 5.5 hours after stimulation
MOR272-1 = settings: cited from earlier work
OR1A1 [1] = target: T1, OR1A1 (Homo sapiens, UniProt Q9P1Q5); settings: cited from earlier work
T1 sequence (Q9P1Q5 1-309): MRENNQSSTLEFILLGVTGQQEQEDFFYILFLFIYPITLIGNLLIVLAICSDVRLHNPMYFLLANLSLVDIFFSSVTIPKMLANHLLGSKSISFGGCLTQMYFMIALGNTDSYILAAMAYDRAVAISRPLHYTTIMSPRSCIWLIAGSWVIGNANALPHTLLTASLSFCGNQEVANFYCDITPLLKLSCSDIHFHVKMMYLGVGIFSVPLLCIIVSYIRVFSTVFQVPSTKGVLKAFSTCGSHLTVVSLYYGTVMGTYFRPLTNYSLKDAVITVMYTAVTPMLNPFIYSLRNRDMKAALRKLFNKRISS

MOR203-1 = settings: cited from earlier work
OR2W1 = target: T2, OR2W1 (Homo sapiens, UniProt Q9Y3N9); settings: cited from earlier work
T2 sequence (Q9Y3N9 1-320): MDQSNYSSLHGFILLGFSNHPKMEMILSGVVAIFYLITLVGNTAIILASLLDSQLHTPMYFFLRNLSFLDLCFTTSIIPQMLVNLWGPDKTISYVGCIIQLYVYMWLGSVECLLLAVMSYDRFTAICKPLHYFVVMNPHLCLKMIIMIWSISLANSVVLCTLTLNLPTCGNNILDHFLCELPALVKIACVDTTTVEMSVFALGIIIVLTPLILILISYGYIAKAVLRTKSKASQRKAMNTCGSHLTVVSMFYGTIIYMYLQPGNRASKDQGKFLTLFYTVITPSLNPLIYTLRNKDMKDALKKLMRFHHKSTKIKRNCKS

MOR271-1 = settings: cited from earlier work
[2] = system: exogenous ethylene benzene responsive GPCR; settings: pure 5 μL hanging droplet on plate lid, no direct contact; transfected human embryonic kidney cells; within minutes
Experimental: Transfected human embryonic kidney cells were seeded at 60,000 cells per well in a poly-D-lysine coated 96-well plate. The exogenous ethylene benzene responsive GPCR and calcium reporter were present in the cytosol. Pure ethylene benzene was deposited as a hanging 5 μL droplet on the plate lid. Once the plate was placed over the well, there was no direct contact between the […] and the culture medium overlaid cells.

OR1A1 [3] = target: T1, OR1A1; test: Luminescent assay (cAMP-responsive luciferase reporter); assay type: cell-based; settings: FIG. 6A; luciferase reporter read 5.5 hours after stimulation
Experimental: Cells are seeded at a density of 15,000 cells per well in a solid white 96-well microplate and allowed to adhere prior to be transfected with different plasmids including but not limited to 10 ng GPCR-expressing plasmid and 10 ng cAMP-responsive luciferase reporter plasmid. The day following the transfection, the receptor-expressing cells are then stimulated with the ligands being tested. After a period to 5.5 hours following the stimulation, the cells are lysed and the luciferase reporter activity is measured following the manufacturer protocol. The amount of luciferase activity is proportional to the ligand-mediated activation level of the exogenous GPCR. FIG. 6 is the result of luminescent assay showing dose response curves of OR1A1 for propylbenzene in FIG. 6A and 1-hexanol in FIG. 6B. The cells produce light by expressing a luciferase enzyme as a reporter readout from a cAMP secondary messenger. The ligand-mediated GPCR activation leads to intracellular cAMP accumulation which triggers a luciferase activity increase which is measured.

SMILES | binding to receptor MOR272-1 (MOR272-1) | binding to receptor OR1A1 (OR1A1 [1]) | binding to receptor MOR203-1 (MOR203-1) | binding to receptor OR2W1 (OR2W1) | further results
CCCCCCO [1-hexanol] | – | – | – | – | detection by mOR256, luminescent assay dose response curve (mOR256): detection
CCCCCCC(C)=O [2-octanone] | bind differentially | bind differentially | bind differentially | bind differentially | –
CCCCC(=O)CC [3-heptanone] | bind differentially | bind differentially | bind differentially | bind differentially | binding to receptor MOR271-1 (MOR271-1): bind differentially
C=C.c1ccccc1 [ethylene benzene] | – | – | – | – | fluorescence of the calcium reporter after gas phase exposure [2]: measurable fluorescence increase
CCCc1ccccc1 [propylbenzene] | – | – | – | – | detection by OR1A1, luminescent assay dose response curve (OR1A1 [3]): detection

Reference: patent US20210318292A1, “System and Method to Detect Small Molecules” (Sensorium Bio, Inc., priority 2020, published 2021)
